One test has as its target T1, nNOS (Rattus norvegicus, UniProt P29476).
T1 construct: purchased Cayman Chem
As to the kind of experiment: NOS activity assay, conversion of L-[14C(U)]-arginine to L-[14C(U)]-citrulline, recombinant nNOS. In kind it is biochemical. Particulars: for Effect on nNOS activity: up to the highest concentration (100 µM); for Pattern of inhibition of nNOS activity: Lineweaver-Burke plot. The source says:
(§1) Secosterol-A and -B were synthesized according to Wentworth et al.([1]) L-Arginine, nicotinamide adenine dinucleotide phosphate reduced form (NADPH), flavin adenine dinucleotide (FAD), flavin mononucleotide (FMN), (6R)-5,6,7,8-tetrahydrobiopterin (BH4), recombinant eNOS (from bovine), iNOS (from mouse macrophages), and Dowex® AG50W-X8 cation-exchange resin (mesh size, 100–200) were all purchased from Sigma Chem. (St. Louis, MO). Ultima Gold XR scintillation liquid was from PerkinElmer (Shelton, CA). Recombinant nNOS (from rat) was obtained from Cayman Chem. All other chemicals were obtained from Wako Pure Chem. Ind., Osaka, Japan.
(§2) The NOS activities were determined by monitoring the conversion of L-[^14C(U)]-arginine (Moravek, Brea, CA) to L-[^14C(U)]-citrulline as previously described.([28]) Recombinant enzymes of three isoforms of NOS (specific activity: eNOS 0.03, nNOS 2.9, iNOS 0.62 units/mg protein) (10 µl) were added to a reaction mixture (final volume of 100 µl) consisting of 50 mM HEPES buffer (pH 7.4), 1 mM NADPH, 4 µM FAD, 4 µM FMN, 10 µM BH4, 1 mg/L (60 µM) calmodulin (CaM), 2.5 mM CaCl2, 50 µM L-arginine, 0.5 µCi/ml of L-[^14C(U)]-arginine (specific activity: 8.14–11.1 GBq/mmol) and varying concentrations of the test compound. After incubation for 30 min at 37°C, the reactions were terminated by the addition of 0.5 ml of 20 mM HEPES (pH 5.5) containing 2 mM EDTA and 2 mM EGTA. Samples were passed through a 1 ml column of Dowex AG50W-X8 (Na^+-form) to remove unconverted L-[^14C(U)]-arginine. L-[^14C(U)]-Citrulline was eluted twice with 1 ml of distilled water, and the eluted fractions mixed with 10 ml of cocktail (Ultima Gold XR) were quantified using a liquid scintillation counter. A reaction mixture containing L-[^14C(U)]-arginine without the enzyme was incubated as a control to determine background counts. The effects of oxidized cholesterol metabolites on the NOSs activities were examined in the presence and absence of the test compounds at various concentrations, which were prepared in 5% ethanol and a 10 µl aliquot was added into the reaction mixture.
(§3) Initial rates of citrulline formation were obtained by linear leastsquares data fitting of actual experimental data. Apparent Km and Vmax values at each inhibitor concentration were obtained from nonlinear regression fitting using the Michaelis-Menten equation. Ki and Kiʹ were obtained from the X-axis intercepts of plots of measured Km/Vmax and 1/Vmax vs inhibitor concentration, respectively.

In a further test the target is T2, iNOS (Mus musculus, UniProt P29477).
T2 construct: purchased Sigma Chem. (St. Louis, MO)
As to the kind of experiment: NOS activity assay, conversion of L-[14C(U)]-arginine to L-[14C(U)]-citrulline, recombinant iNOS. It is filed as biochemical. The settings on record: tested 1–100 µM, highest concentration 100 µM.
Excerpt: as §1, §2

The next test addresses T3, eNOS (Bos taurus, UniProt P29473).
T3 construct: purchased Sigma Chem. (St. Louis, MO)
T3 sequence (P29473 2-1205 limits assumed): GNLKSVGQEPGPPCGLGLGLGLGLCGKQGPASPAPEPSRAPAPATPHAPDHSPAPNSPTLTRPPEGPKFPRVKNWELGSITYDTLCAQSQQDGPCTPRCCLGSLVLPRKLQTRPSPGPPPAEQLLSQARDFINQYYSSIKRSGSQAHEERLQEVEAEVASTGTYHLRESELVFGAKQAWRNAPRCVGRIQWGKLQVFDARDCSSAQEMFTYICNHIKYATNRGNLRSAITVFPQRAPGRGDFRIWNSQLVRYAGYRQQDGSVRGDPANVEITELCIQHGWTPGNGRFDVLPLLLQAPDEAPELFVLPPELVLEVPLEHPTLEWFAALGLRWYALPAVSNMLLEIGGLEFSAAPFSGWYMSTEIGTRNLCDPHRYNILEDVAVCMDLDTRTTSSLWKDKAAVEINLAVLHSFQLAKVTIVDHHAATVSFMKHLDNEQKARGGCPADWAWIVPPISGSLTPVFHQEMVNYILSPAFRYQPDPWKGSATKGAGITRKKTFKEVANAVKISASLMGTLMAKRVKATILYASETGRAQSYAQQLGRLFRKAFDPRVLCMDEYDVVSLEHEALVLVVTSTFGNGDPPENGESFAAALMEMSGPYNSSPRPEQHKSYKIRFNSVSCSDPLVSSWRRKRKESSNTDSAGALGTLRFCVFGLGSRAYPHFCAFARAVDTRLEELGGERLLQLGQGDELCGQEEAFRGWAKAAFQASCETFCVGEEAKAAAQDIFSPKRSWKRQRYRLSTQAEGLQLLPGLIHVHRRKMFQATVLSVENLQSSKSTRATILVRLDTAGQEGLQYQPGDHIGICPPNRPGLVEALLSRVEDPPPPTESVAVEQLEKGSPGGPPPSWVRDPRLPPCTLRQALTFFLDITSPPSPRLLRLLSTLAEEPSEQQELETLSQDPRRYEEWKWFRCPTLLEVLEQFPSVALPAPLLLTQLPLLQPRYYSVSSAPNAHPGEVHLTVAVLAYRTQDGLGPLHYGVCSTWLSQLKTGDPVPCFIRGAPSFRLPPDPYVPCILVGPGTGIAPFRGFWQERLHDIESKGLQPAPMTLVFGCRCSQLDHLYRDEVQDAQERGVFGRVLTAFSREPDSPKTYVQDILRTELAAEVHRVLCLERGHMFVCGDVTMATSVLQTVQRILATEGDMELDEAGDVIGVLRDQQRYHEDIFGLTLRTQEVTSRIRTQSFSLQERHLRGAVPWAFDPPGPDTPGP
As to the kind of experiment: NOS activity assay, conversion of L-[14C(U)]-arginine to L-[14C(U)]-citrulline, recombinant eNOS. In kind it is biochemical, bovine. Particulars: for Effect on eNOS activity: up to the highest concentration (100 µM).
Excerpt: as §1, §2, §3

The target in the next test is bovine serum albumin (Bos taurus, UniProt P02769). As to the kind of experiment: Reaction with proteins to form the adduct (preliminary, unpublished data).
Chain of bovine serum albumin (P02769 25-607): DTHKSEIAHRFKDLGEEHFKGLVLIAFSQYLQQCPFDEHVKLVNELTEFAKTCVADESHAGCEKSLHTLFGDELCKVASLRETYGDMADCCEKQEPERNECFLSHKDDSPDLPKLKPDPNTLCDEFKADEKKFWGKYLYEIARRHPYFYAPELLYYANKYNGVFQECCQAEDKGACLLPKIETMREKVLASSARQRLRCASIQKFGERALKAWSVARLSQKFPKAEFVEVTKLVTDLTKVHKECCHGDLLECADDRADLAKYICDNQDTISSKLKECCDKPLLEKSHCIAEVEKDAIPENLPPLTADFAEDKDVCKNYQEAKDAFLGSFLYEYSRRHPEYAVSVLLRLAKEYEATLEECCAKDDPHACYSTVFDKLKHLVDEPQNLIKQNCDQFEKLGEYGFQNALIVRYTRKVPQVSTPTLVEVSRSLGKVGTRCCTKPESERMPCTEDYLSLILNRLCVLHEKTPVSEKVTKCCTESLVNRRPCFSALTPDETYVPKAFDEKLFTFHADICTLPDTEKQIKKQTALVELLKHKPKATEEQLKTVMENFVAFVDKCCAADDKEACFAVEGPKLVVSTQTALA
Setting [1] is: varying L-arginine, read-out: Ki(app) for the catalytic site.

We go through 6 molecules from PMC3246188, “Inhibition of endothelial- and neuronal-type, but not inducible-type, nitric oxide synthase by the oxidized cholesterol metabolite secosterol aldehyde: Implications for vascular and neurodegenerative diseases” (Journal of Clinical Biochemistry and Nutrition, 2011).

Usually IC50 stands for the point on the concentration scale where inhibition reaches its midpoint.

Read-outs that look alike come from different tables or passages of the source.

T1 sequence (P29476 whole entry): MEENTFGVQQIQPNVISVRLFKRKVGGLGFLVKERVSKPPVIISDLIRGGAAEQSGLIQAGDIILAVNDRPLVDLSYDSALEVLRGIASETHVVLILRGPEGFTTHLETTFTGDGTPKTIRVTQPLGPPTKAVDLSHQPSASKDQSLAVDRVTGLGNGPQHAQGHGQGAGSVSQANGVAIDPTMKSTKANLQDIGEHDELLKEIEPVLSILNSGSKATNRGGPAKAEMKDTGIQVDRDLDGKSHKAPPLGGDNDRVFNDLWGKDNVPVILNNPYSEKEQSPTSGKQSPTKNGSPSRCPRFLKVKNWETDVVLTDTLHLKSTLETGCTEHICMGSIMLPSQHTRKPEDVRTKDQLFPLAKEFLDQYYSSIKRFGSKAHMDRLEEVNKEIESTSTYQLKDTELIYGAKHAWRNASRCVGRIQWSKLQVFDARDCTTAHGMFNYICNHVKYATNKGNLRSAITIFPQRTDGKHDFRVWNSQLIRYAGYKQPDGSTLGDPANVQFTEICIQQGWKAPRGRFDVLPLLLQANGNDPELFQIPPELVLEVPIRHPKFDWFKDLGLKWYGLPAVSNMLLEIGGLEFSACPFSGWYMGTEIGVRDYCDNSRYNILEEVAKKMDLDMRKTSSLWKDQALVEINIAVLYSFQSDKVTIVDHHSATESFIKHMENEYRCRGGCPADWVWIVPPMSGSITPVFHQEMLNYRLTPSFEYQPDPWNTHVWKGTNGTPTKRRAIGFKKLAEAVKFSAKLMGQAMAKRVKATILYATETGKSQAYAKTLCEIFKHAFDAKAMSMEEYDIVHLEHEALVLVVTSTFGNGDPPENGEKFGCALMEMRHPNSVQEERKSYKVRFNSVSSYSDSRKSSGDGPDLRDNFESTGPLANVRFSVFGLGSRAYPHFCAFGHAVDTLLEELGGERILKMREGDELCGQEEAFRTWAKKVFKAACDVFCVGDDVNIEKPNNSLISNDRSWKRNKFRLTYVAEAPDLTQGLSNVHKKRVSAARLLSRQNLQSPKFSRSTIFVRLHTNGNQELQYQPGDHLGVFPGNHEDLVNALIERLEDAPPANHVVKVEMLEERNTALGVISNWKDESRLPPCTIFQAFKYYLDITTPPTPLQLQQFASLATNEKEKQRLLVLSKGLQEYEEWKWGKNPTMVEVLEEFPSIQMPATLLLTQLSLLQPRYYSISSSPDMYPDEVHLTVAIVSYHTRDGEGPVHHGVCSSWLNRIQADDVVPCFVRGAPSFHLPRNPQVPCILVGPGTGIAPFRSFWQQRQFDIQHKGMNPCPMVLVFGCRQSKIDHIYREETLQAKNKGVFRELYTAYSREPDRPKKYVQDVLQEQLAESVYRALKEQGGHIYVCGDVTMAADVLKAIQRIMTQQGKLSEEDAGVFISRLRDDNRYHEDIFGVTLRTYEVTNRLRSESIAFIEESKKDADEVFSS

In the case of `CC(C)CCC[C@@H](C)[C@H]1CC[C@H]2[C@@H]3CC=C4C[C@@H](O)CC[C@]4(C)[C@H]3CC[C@]12C` [cholesterol], the “Effect on nNOS activity” value on nNOS is given as “do not affect”; on nNOS (listed as Cholesterol) it was “no inhibitory effects”. In addition, the “Effect on iNOS activity” value was “do not affect” at iNOS and “no inhibitory effects” on iNOS (listed as Cholesterol). The “Effect on eNOS activity” value is given as “do not affect” at eNOS and “no inhibitory effects” on eNOS (listed as Cholesterol).

Regarding `CC(C)CCC[C@@H](C)[C@H]1CC[C@H]2[C@@H]3C[C@H]4O[C@]45C[C@@H](O)CC[C@]5(C)[C@H]3CC[C@]12C` [5β,6β-epoxycholesterol], the “Effect on nNOS activity” value on nNOS is listed as “do not affect”. In addition, the “Effect on iNOS activity” value at iNOS is recorded as “do not affect”. The “Effect on eNOS activity” value on eNOS is “do not affect”.

For `CC(C)CCC[C@@H](C)[C@H]1CC[C@H]2[C@@H]3C(=O)C=C4C[C@@H](O)CC[C@]4(C)[C@H]3CC[C@]12C` [7-ketocholesterol, 3β-hydroxy-5-cholesten-7-one], the “Effect on nNOS activity” value on nNOS is recorded as “do not affect”. On iNOS, the “Effect on iNOS activity” value is listed as “do not affect”. The “Effect on eNOS activity” value on eNOS is “do not affect”.

Turning to `CC(C)CCC[C@@H](C)[C@H]1CC[C@H]2[C@H](CC=O)[C@@H]([C@@]3(C)CC[C@H](O)CC3=O)CC[C@]12C` [secosterol-A, 3β-hydroxy-5-oxo-5,6-secocholestan-6-al], the “nNOS activity, % of the activity without secosterol-A” value at nNOS (40 µM secosterol-A, 10 µM BH4) was 23%. Also, the “nNOS activity compared to the activity without secosterol-A” value amounted to 22% on nNOS (40 µM secosterol-A, 60 µM CaM); 63% on nNOS (40 µM secosterol-A, excess CaM 300 µM); 86% at nNOS (40 µM secosterol-A, excess CaM 600 µM). Also, the “Restoration of inhibited nNOS activity by added BH4” value on nNOS (40 µM secosterol-A, 50 and 100 µM BH4) is recorded as “did not restore”. Also, the “Vmax(app)ʹ” value at nNOS (L-arginine as substrate, in the presence of 40 µM secosterol-A (10000 without inhibitor)) was determined as 909 µmol·L^−1·30 min^−1; on eNOS (L-arginine as substrate, in the presence of 50 µM secosterol-A (1400 without inhibitor)), 480 µmol·L^−1·30 min^−1. The IC50 on nNOS (recombinant rat nNOS, 50 µM L-arginine, 30 min at 37°C) is 22 ± 1 µM; on eNOS (recombinant bovine eNOS, 50 µM L-arginine, 30 min at 37°C), 50 ± 5 µM. Moreover, the “Pattern of inhibition of nNOS activity” value on nNOS (varying CaM) and at nNOS (varying L-arginine) was “noncompetitive or a mixed-type” throughout. Further, the Ki on nNOS (varying CaM, read-out: Kiʹ for the allosteric site (CaM-dependent nNOS activity)) came out at 30 µM; on nNOS (setting [1]), 10 µM; on nNOS (varying L-arginine, read-out: Ki(app)ʹ for the allosteric site), 1 µM; on eNOS (setting [1]) it was 50 µM. Further, the “Effect on iNOS activity” value on iNOS was “did not affect”. The “eNOS activity, % of the activity without secosterol-A” value at eNOS (100 µM secosterol-A, 10 µM BH4) is listed as 41%. In addition, the “Restoration of inhibited eNOS activity by added BH4” value at eNOS (100 µM secosterol-A, 50 and 100 µM BH4) is “did not restore”. For the same molecule, the “Restoration of inhibited eNOS activity by excess CaM” value at eNOS (100 µM secosterol-A, CaM 60–600 µM) was “did not restore”. The “Reactivity with proteins to form the adduct” value on bovine serum albumin is given as “more easily than secosterol-B”.

On to `CC(C)CCC[C@@H](C)[C@H]1CC[C@H]2[C@@H]3[C@@H](C=O)[C@]4(O)C[C@@H](O)CC[C@]4(C)[C@H]3CC[C@]12C` [secosterol-B, 3β-hydroxy-5β-hydroxy-B-norcholestane-6β-carboxaldehyde], for which the “Effect on nNOS activity” value at nNOS was “do not affect”. In addition, the “Effect on iNOS activity” value on iNOS is “do not affect”. The “Effect on eNOS activity” value at eNOS was “do not affect”.

For the molecule `C[C@H](CCCC(C)(C)O)[C@H]1CC[C@H]2[C@@H]3CC=C4C[C@@H](O)CC[C@]4(C)[C@H]3CC[C@]12C` [25-hydroxycholesterol], the “Effect on nNOS activity” value on nNOS is “do not affect”. Moreover, on iNOS, the “Effect on iNOS activity” value is given as “do not affect”. In addition, the “Effect on eNOS activity” value at eNOS is “do not affect”.
